Patent US8802597B2, “Herbicidal pyrimidines” (E I du Pont de Nemours and Company, priority 2003, dated 2014)
Like-named read-outs stand apart in the source and are kept apart here.

Legend:
Assay in all cases: Test C pre/postemergence
Assay type in all cases: in vivo
[1] = test system: velvetleaf (Abutilon theophrasti); details: Abutilon theophrasti; for pest or weed control at 62 g/ha: 62 g ai/ha; for pest or weed control at 125 g/ha: 125 g ai/ha; for pest or weed control at 250 g/ha: 250 g ai/ha; for pest or weed control at 500 g/ha: 500 g ai/ha
Procedure, shortened: (§1)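 Injury scored visually 12–14 days after application on 0–100 scale (100 = complete control), relative to controls. Compounds, formulated with surfactant in non-phytotoxic solvent, applied to soil at planting (pre) or to 1- to 4-leaf plants 2–18 cm tall (post) in greenhouse.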

[2] = test system: yellow nutsedge (Cyperus esculentus); details: Cyperus; for pest or weed control at 62 g/ha: 62 g ai/ha; for pest or weed control at 125 g/ha: 125 g ai/ha; for pest or weed control at 250 g/ha: 250 g ai/ha; for pest or weed control at 500 g/ha: 500 g ai/ha
Procedure, shortened: as §1

[3] = test system: cocklebur (Xanthium strumarium); details: Xanthium strumarium; for pest or weed control at 62 g/ha: 62 g ai/ha; for pest or weed control at 125 g/ha: 125 g ai/ha; for pest or weed control at 250 g/ha: 250 g ai/ha; for pest or weed control at 500 g/ha: 500 g ai/ha
Procedure, shortened: as §1

[4] = test system: crabgrass (Digitaria sanguinalis); details: Digitaria sanguinalis; for pest or weed control at 62 g/ha: 62 g ai/ha; for pest or weed control at 125 g/ha: 125 g ai/ha; for pest or weed control at 250 g/ha: 250 g ai/ha; for pest or weed control at 500 g/ha: 500 g ai/ha
Procedure, shortened: as §1

[5] = test system: pigweed (Amaranthus retroflexus); details: Amaranthus retroflexus; for pest or weed control at 62 g/ha: 62 g ai/ha; for pest or weed control at 125 g/ha: 125 g ai/ha; for pest or weed control at 250 g/ha: 250 g ai/ha; for pest or weed control at 500 g/ha: 500 g ai/ha
Procedure, shortened: as §1

[6] = test system: giant foxtail (Setaria faberii); details: Setaria faberi; for pest or weed control at 125 g/ha: 125 g ai/ha; for pest or weed control at 500 g/ha: 500 g ai/ha; for pest or weed control at 62 g/ha: 62 g ai/ha; for pest or weed control at 250 g/ha: 250 g ai/ha
Procedure, shortened: as §1

[7] = test system: eastern black nightshade (Solanum ptycanthum); details: Solanum, pre-emergence, Preemergence, read-out: Plant response rating, Nightshade
Procedure, shortened: as §1

[8] = test system: woolly cupgrass (Eriochloa villosa); details: Eriochloa villosa; for pest or weed control at 62 g/ha: 62 g ai/ha; for pest or weed control at 125 g/ha: 125 g ai/ha; for pest or weed control at 250 g/ha: 250 g ai/ha; for pest or weed control at 500 g/ha: 500 g ai/ha
Procedure, shortened: as §1

[9] = test system: common (oilseed) sunflower (Helianthus annuus); details: Helianthus annuus, pre-emergence, Preemergence, read-out: Plant response rating, Sunflower
Procedure, shortened: as §1

[10] = test system: morningglory (Ipomoea coccinea); details: Ipomoea; for pest or weed control at 62 g/ha: 62 g ai/ha; for pest or weed control at 125 g/ha: 125 g ai/ha; for pest or weed control at 250 g/ha: 250 g ai/ha; for pest or weed control at 500 g/ha: 500 g ai/ha
Procedure, shortened: as §1

kochia (Kochia scoparia) = details: Bassia scoparia; for pest or weed control at 62 g/ha: 62 g ai/ha; for pest or weed control at 125 g/ha: 125 g ai/ha; for pest or weed control at 250 g/ha: 250 g ai/ha; for pest or weed control at 500 g/ha: 500 g ai/ha
Procedure, shortened: as §1

[11] = test system: common ragweed (Ambrosia elatior); details: Ambrosia artemisiifolia; for pest or weed control at 62 g/ha: 62 g ai/ha; for pest or weed control at 125 g/ha: 125 g ai/ha; for pest or weed control at 250 g/ha: 250 g ai/ha; for pest or weed control at 500 g/ha: 500 g ai/ha
Procedure, shortened: as §1

[12] = post-emergence, Postemergence, scale 0 to 100 (0 no effect, 100 complete control), read-out: Velvetleaf plant response rating
[13] = post-emergence, Postemergence, scale 0 to 100, read-out: Plant response rating, Velvetleaf
[14] = pre-emergence, Preemergence, scale 0 to 100, read-out: Plant response rating, Velvetleaf
[15] = post-emergence, Postemergence, scale 0 to 100 (0 no effect, 100 complete control), read-out: Nutsedge, Yellow plant response rating
[16] = post-emergence, Postemergence, scale 0 to 100, read-out: Plant response rating, Nutsedge, Yellow
[17] = pre-emergence, Preemergence, scale 0 to 100, read-out: Plant response rating, Nutsedge, Yellow
[18] = post-emergence, Postemergence, scale 0 to 100 (0 no effect, 100 complete control), read-out: Cocklebur plant response rating
[19] = post-emergence, Postemergence, scale 0 to 100, read-out: Plant response rating, Cocklebur
[20] = pre-emergence, Preemergence, scale 0 to 100, read-out: Plant response rating, Cocklebur
[21] = post-emergence, Postemergence, scale 0 to 100 (0 no effect, 100 complete control), read-out: Crabgrass plant response rating
[22] = post-emergence, Postemergence, scale 0 to 100, read-out: Plant response rating, Crabgrass
[23] = pre-emergence, Preemergence, scale 0 to 100, read-out: Plant response rating, Crabgrass
[24] = post-emergence, Postemergence, scale 0 to 100 (0 no effect, 100 complete control), read-out: Pigweed plant response rating
[25] = post-emergence, Postemergence, scale 0 to 100, read-out: Plant response rating, Pigweed
[26] = pre-emergence, Preemergence, scale 0 to 100, read-out: Plant response rating, Pigweed
[27] = post-emergence, Postemergence, scale 0 to 100 (0 no effect, 100 complete control), read-out: Foxtail, Giant plant response rating
[28] = post-emergence, Postemergence, scale 0 to 100, read-out: Plant response rating, Foxtail, Giant
[29] = pre-emergence, Preemergence, scale 0 to 100, read-out: Plant response rating, Foxtail, Giant
[30] = 62 g ai/ha, scale 0 to 100, 0 no effect, 100 complete control
[31] = post-emergence, Postemergence, scale 0 to 100 (0 no effect, 100 complete control), read-out: Cupgrass, Woolly plant response rating
[32] = post-emergence, Postemergence, scale 0 to 100, read-out: Plant response rating, Cupgrass, Woolly
[33] = pre-emergence, Preemergence, scale 0 to 100, read-out: Plant response rating, Cupgrass, Woolly
[34] = post-emergence, Postemergence, scale 0 to 100 (0 no effect, 100 complete control), read-out: Morningglory plant response rating
[35] = post-emergence, Postemergence, scale 0 to 100, read-out: Plant response rating, Morningglory
[36] = pre-emergence, Preemergence, scale 0 to 100, read-out: Plant response rating, Morningglory
[37] = post-emergence, Postemergence, scale 0 to 100 (0 no effect, 100 complete control), read-out: Kochia plant response rating
[38] = post-emergence, Postemergence, scale 0 to 100, read-out: Plant response rating, Kochia
[39] = pre-emergence, Preemergence, scale 0 to 100, read-out: Plant response rating, Kochia
[40] = post-emergence, Postemergence, scale 0 to 100 (0 no effect, 100 complete control), read-out: Ragweed plant response rating
[41] = post-emergence, Postemergence, scale 0 to 100, read-out: Plant response rating, Ragweed
[42] = pre-emergence, Preemergence, scale 0 to 100, read-out: Plant response rating, Ragweed

CCOC(=O)c1nc(C2CC2)nc(N)c1Cl [Compound 4, ethyl 6-amino-5-chloro-2-cyclopropyl-4-pyrimidinecarboxylate]
65%: pest or weed control at 125 g/ha [4, 23]
70%: pest or weed control at 62 g/ha [4, 21] | pest or weed control at 125 g/ha [8, 31]
85%: pest or weed control at 62 g/ha [3, 18] | pest or weed control at 250 g/ha [4, 23] | pest or weed control at 250 g/ha [6, 28] | pest or weed control at 500 g/ha [6, 29] | pest or weed control at 250 g/ha [8, 32]
60%: pest or weed control at 62 g/ha [6, 27] | pest or weed control at 62 g/ha [8, 31]
15%: pest or weed control at 250 g/ha [2, 17] | pest or weed control at 62 g/ha [10, 34]
0%: pest or weed control at 62 g/ha [2, 15] | pest or weed control at 125 g/ha [2, 15] | pest or weed control at 250 g/ha [2, 16] | pest or weed control at 500 g/ha [2, 16] | pest or weed control at 62 g/ha ([2]; pre-emergence, Preemergence, scale 0 to 100, 0 no effect, 100 complete control, read-out: Plant response rating, Nutsedge, Yellow) | pest or weed control at 125 g/ha [2, 17] | pest or weed control at 62 g/ha ([6]; pre-emergence, Preemergence, scale 0 to 100, 0 no effect, 100 complete control, read-out: Plant response rating, Foxtail, Giant) | pest or weed control at 62 g/ha ([8]; pre-emergence, Preemergence, scale 0 to 100, 0 no effect, 100 complete control, read-out: Plant response rating, Cupgrass, Woolly)
80%: pest or weed control at 62 g/ha [1, 12] | pest or weed control at 500 g/ha [2, 17] | pest or weed control at 62 g/ha ([3]; pre-emergence, Preemergence, scale 0 to 100, 0 no effect, 100 complete control, read-out: Plant response rating, Cocklebur) | pest or weed control at 500 g/ha [4, 22] | pest or weed control at 125 g/ha [8, 33]
40%: pest or weed control at 62 g/ha ([4]; pre-emergence, Preemergence, scale 0 to 100, 0 no effect, 100 complete control, read-out: Plant response rating, Crabgrass) | pest or weed control at 125 g/ha [6, 29]
95%: pest or weed control at 125 g/ha [1, 14] | pest or weed control at 250 g/ha [1, 14] | pest or weed control at 125 g/ha [3, 20] | pest or weed control at 500 g/ha [4, 23] | pest or weed control at 62 g/ha ([5]; pre-emergence, Preemergence, scale 0 to 100, 0 no effect, 100 complete control, read-out: Plant response rating, Pigweed) | pest or weed control at 500 g/ha [6, 28] | pest or weed control at 500 g/ha [8, 32] | pest or weed control at 250 g/ha [8, 33] | pest or weed control at 500 g/ha [8, 33] | pest or weed control at 62 g/ha (kochia (Kochia scoparia); pre-emergence, Preemergence, scale 0 to 100, 0 no effect, 100 complete control, read-out: Plant response rating, Kochia)
100%: pest or weed control at 125 g/ha [1, 12] | pest or weed control at 250 g/ha [1, 13] | pest or weed control at 500 g/ha [1, 13] | pest or weed control at 500 g/ha [1, 14] | pest or weed control at 125 g/ha [3, 18] | pest or weed control at 250 g/ha [3, 19] | pest or weed control at 500 g/ha [3, 19] | pest or weed control at 250 g/ha [3, 20] | pest or weed control at 500 g/ha [3, 20] | pest or weed control at 62 g/ha [5, 24] | pest or weed control at 125 g/ha [5, 24] | pest or weed control at 250 g/ha [5, 25] | pest or weed control at 500 g/ha [5, 25] | pest or weed control at 125 g/ha [5, 26] | pest or weed control at 250 g/ha [5, 26] | pest or weed control at 500 g/ha [5, 26] | pest or weed control at 62 g/ha [7, 30] | pest or weed control at 125 g/ha ([7]; 125 g ai/ha, scale 0 to 100) | pest or weed control at 250 g/ha ([7]; 250 g ai/ha, scale 0 to 100) | pest or weed control at 500 g/ha ([7]; 500 g ai/ha, scale 0 to 100) | pest or weed control at 62 g/ha [9, 30] | pest or weed control at 125 g/ha ([9]; 125 g ai/ha, scale 0 to 100) | pest or weed control at 250 g/ha ([9]; 250 g ai/ha, scale 0 to 100) | pest or weed control at 500 g/ha ([9]; 500 g ai/ha, scale 0 to 100) | pest or weed control at 125 g/ha [10, 34] | pest or weed control at 250 g/ha [10, 35] | pest or weed control at 500 g/ha [10, 35] | pest or weed control at 62 g/ha ([10]; pre-emergence, Preemergence, scale 0 to 100, 0 no effect, 100 complete control, read-out: Plant response rating, Morningglory) | pest or weed control at 125 g/ha [10, 36] | pest or weed control at 250 g/ha [10, 36] | pest or weed control at 500 g/ha [10, 36] | pest or weed control at 62 g/ha (kochia (Kochia scoparia); [37]) | pest or weed control at 125 g/ha (kochia (Kochia scoparia); [37]) | pest or weed control at 250 g/ha (kochia (Kochia scoparia); [38]) | pest or weed control at 500 g/ha (kochia (Kochia scoparia); [38]) | pest or weed control at 125 g/ha (kochia (Kochia scoparia); [39]) | pest or weed control at 250 g/ha (kochia (Kochia scoparia); [39]) | pest or weed control at 500 g/ha (kochia (Kochia scoparia); [39]) | pest or weed control at 62 g/ha [11, 40] | pest or weed control at 125 g/ha [11, 40] | pest or weed control at 250 g/ha [11, 41] | pest or weed control at 500 g/ha [11, 41] | pest or weed control at 62 g/ha ([11]; pre-emergence, Preemergence, scale 0 to 100, 0 no effect, 100 complete control, read-out: Plant response rating, Ragweed) | pest or weed control at 125 g/ha [11, 42] | pest or weed control at 250 g/ha [11, 42] | pest or weed control at 500 g/ha [11, 42]
75%: pest or weed control at 62 g/ha ([1]; pre-emergence, Preemergence, scale 0 to 100, 0 no effect, 100 complete control, read-out: Plant response rating, Velvetleaf) | pest or weed control at 125 g/ha [4, 21] | pest or weed control at 250 g/ha [4, 22] | pest or weed control at 125 g/ha [6, 27] | pest or weed control at 250 g/ha [6, 29]
